Results: US20260248927A1, “TARGETED PROTEIN DEGRADATION USING BIFUNCTIONAL COMPOUNDS THAT BIND UBIQUITIN LIGASE AND TARGET MCL-1 PROTEIN” (Captor Therapeutics S.A., priority 2022, published 2026)

How the values were obtained:
[1] = test system: MV4-11 cells; experiment: Cell viability assay (CellTiter-Glo), MV4-11; assay type: cell-based; conditions: Homo sapiens, MV4-11, 24 hours, 1% FBS, read-out: Average pCC50 by molecule MV4-11 (converted)
Description: (§1) The effect of various compounds of the invention on the viability of MV4-11 and ARH-77 cell lines was investigated, using the CTG protocol described below.
(§2) MV4-11 cell lines are derived from acute myeloid leukaemia and it is described in the literature as a MCL-1 dependent cell line, as opposed to lymphoblast-like ARH-77 cell line, which is described as independent of MCL-1 (Tron A E et al. Nat Commun. 2018; 9: 5341; Caenepeel S et al. Cancer Discov. 2018 December; 8(12): 1582-1597).
(§3) Cells (MV4-11 or ARH-77) were seeded on […] in a growth medium with 1% FBS. Next, compound stocks were pre-diluted in DMSO and added directly to the cell culture media (final DMSO concentration: 0.5%). Compound concentrations used in this assay: 1/3 dilutions starting at 30 μM (9 to 12 points). After 24 hours of incubation, cell viability was evaluated using CellTiter-Glo Luminescent Cell Viability Assay (Promega, cat #G7572). The luminescence signal was measured using a CLARIOstar Plus Multi-Mode Microplate Reader (574-590 nm).
(§4) Results were normalized to DMSO control. Collected data were analyzed using GraphPad Prism to calculate pCC50 values.

[2] = target: [MCL-1]-[compound of formula (I)]—[CRBN/DDB1] (Homo sapiens, UniProt Q07820+Q96SW2); experiment: HTRF ternary complex formation assay; assay type: binding; conditions: hMcl-1 and CRBN, 180 min at 25° C.; read-out: HTRF ternary complex Average pEC50 by molecule (converted)
Sequence of [MCL-1]-[compound of formula (I)]—[CRBN/DDB1] (Q07820 whole entry): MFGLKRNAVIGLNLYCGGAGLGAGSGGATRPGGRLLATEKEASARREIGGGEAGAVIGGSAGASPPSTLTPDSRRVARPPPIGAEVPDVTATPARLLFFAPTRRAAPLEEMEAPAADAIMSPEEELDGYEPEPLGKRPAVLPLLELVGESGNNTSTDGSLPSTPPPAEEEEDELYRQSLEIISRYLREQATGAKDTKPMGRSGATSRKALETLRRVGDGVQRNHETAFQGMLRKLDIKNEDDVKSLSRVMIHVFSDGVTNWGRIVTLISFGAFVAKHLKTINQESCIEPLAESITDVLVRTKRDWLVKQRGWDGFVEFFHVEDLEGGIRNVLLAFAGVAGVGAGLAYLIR
Sequence of [MCL-1]-[compound of formula (I)]—[CRBN/DDB1] (Q96SW2 whole entry): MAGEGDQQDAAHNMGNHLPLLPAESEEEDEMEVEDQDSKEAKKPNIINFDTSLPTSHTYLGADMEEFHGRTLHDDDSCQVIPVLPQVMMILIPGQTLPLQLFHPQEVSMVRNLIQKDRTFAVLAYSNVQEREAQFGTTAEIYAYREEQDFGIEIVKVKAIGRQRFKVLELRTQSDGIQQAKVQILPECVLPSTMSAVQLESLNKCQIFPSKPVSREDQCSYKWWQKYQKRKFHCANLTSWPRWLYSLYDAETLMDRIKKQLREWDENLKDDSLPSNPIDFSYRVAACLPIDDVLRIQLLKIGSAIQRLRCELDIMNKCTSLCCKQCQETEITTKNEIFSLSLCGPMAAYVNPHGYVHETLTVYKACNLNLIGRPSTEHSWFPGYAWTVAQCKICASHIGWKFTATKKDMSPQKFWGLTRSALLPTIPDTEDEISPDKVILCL
Sequence of [MCL-1]-[compound of formula (I)]—[CRBN/DDB1] (Q16531 whole entry partner): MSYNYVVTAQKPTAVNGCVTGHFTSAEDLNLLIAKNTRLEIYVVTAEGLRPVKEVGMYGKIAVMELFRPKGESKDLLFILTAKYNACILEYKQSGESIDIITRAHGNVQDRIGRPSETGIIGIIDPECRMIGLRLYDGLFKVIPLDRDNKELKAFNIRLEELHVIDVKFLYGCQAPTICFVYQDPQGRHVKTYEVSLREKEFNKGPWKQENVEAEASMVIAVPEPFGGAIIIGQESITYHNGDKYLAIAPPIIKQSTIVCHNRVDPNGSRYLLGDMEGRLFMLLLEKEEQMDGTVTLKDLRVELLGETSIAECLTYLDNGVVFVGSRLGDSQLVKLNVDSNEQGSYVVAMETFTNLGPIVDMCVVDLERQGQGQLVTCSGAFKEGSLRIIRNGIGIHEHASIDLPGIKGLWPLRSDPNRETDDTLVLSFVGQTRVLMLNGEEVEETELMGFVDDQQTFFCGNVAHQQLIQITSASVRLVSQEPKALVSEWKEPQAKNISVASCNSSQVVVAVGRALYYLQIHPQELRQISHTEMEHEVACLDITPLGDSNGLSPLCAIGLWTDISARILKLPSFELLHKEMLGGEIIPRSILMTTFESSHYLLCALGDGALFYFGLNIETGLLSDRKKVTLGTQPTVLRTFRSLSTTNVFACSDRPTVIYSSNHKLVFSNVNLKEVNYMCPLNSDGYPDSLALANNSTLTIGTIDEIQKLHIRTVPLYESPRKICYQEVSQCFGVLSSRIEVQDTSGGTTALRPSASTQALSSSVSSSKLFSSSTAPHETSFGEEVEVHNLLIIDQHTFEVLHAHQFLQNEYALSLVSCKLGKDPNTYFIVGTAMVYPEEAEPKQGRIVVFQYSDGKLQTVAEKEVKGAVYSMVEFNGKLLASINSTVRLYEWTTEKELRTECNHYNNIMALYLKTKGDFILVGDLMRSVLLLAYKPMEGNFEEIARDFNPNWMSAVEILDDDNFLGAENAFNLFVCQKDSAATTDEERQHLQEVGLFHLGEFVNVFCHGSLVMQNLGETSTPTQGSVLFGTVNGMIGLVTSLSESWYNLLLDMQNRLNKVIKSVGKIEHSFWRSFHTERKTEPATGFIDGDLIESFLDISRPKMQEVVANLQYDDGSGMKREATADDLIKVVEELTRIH
Method: The effect of the bifunctional compounds of the invention on the formation of a ternary complex composed of [MCL-1]-[compound of formula (I)]—[CRBN/DDB1] was investigated with HTRF ternary complex assay.
Mix of protein solution was prepared: • 48 nM hMcl-1 and 105.6 nM CRBN were prepared in PPI Europium detection buffer with 2 mM DTT. • Acceptor and donor stock solutions were diluted 100 times in PPI Europium detection buffer. Equal volumes of both reagents were mixed. Finally giving 3 nM of Streptavidin-Eu cryptate ([…]) and 6.67 nM of Anti-6×his-d2 ([…]).
5 μl of protein mix was dispensed to all wells. The tested compounds in dose-response were dispensed onto a white 384-well low volume plate (Greiner, 784075). DMSO was backfilled to all wells, resulting in a final DMSO content of 0.5%. Wells containing only DMSO served as a background. Next, 5 μl of solution with donor and acceptor was added to the wells.
The plate was sealed with transparent film and shaken using a VibroTurbulator for 60 sec at level 3. The plate was then spun down shortly (10 s, 1000 rcf) and incubated at 25° C. for 180 min.
The read-out was performed with plate reader (Pherastar, BMG Labtech) in time resolved fluorescence mode. Filterset: TR 337 665 620.
The results were analyzed as follows: • 1) an average of fluorescence for background signal was calculated and used as a negative control; • 2) raw fluorescence values for tested compounds were normalized against negative controls; • 3) bell shape curve was fitted to a gaussian distribution using a non-linear least squares Gauss-Newton algorithm; • 4) EC50 and pEC50 values were determined.

[3] = Cell viability assay (CellTiter-Glo), ARH-77; assay type: cell-based; conditions: human, ARH-77 cells (lymphoblast-like, MCL-1 independent), ARH-77, 24 hours, 1% FBS, read-out: Average pCC50 by molecule ARH-77 (converted)
Description: as §1, §2, §3, §4

Row | EC50 [2] [nM] | Structure (SMILES) | CC50 [1] [nM] | CC50 at 24 h [3] [nM]
1 | < 31.6 | Cc1nn(C)c(C)c1-c1c(Cl)ccc2c(CCCOc3cccc4cc(F)ccc34)c(C(=O)O)n(CCN3CCN(C(=O)COc4ccc5c6c(cccc46)C(=O)N5C4CCC(=O)NC4=O)CC3)c12 (stereo not drawn) [Compound 21, 6-Chloro-1-(2-(4-(2-((1-(2,6-dioxopiperidin-3-yl)-2-oxo-1,2-dihydrobenzo[cd]indol-6-yl)oxy)acetyl)piperazin-1-yl)ethyl)-3-(3-((6-fluoronaphthalen-1-yl)oxy)propyl)-7-(1,3,5-trimethyl-1H-pyrazol-4-yl)-1H-indole-2-carboxylic acid] | < 316 | > 10000
2 | < 31.6 | Cc1nn(C)c(C)c1-c1c(Cl)ccc2c(CCCOc3cccc4cc(F)ccc34)c(C(=O)O)n(CCN3CCC(CN4CCN(c5ccc6c(c5)C(C)N(C5CCC(=O)NC5=O)C6=O)CC4)CC3)c12 (mixture of isomers) [Compound 145, 6-Chloro-1-(2-(4-((4-(2-(2,6-dioxopiperidin-3-yl)-3-methyl-1-oxoisoindolin-5-yl)piperazin-1-yl)methyl)piperidin-1-yl)ethyl)-3-(3-((6-fluoronaphthalen-1-yl)oxy)propyl)-7-(1,3,5-trimethyl-1H-pyrazol-4-yl)-1H-indole-2-carboxylic acid] | < 100 | > 10000
3 | < 100 | Cc1nn(C)c(C)c1-c1c(Cl)ccc2c(CCCOc3cccc4cc(F)ccc34)c(C(=O)O)n(CCN3CCN(C(=O)Cn4c(C)nc5c(C(=O)NC6CCC(=O)NC6=O)ccc(F)c54)CC3)c12 (stereo not drawn) [Compound 1, 6-Chloro-1-(2-(4-(2-(4-((2,6-dioxopiperidin-3-yl)carbamoyl)-7-fluoro-2-methyl-1H-benzo[d]imidazol-1-yl)acetyl)piperazin-1-yl)ethyl)-3-(3-((6-fluoronaphthalen-1-yl)oxy)propyl)-7-(1,3,5-trimethyl-1H-pyrazol-4-yl)-1H-indole-2-carboxylic acid] | < 100 | > 10000
